These results are taken from patent US5478864A, “Method for disinfection using a 1,n-bis(N^5 -trifluoromethyl-phenyl-N^1 -biguanido)-alkane” (Mitsubishi Materials Corp., priority 1991, dated 1995).

Assay [1] concerns Pseudomonas aeruginosa IID 1042. Description: minimum growth inhibition concentration, agar dilution. The assay is classed as cell-based. The procedure: (§1) Germicidal activity of the compound prepared in Example 1 (Compound I) was evaluated by the minimum growth inhibition concentration method (based on the standard method stipulated by Japan Society of Chemotherapy) and the phenol coefficient method.
(§2) A portion of the digluconate salt of the compound of Example 1 was dissolved in water and the solution was heated to dryness on a water bath. The dried salt was dissolved in acetic acid (potentiometric titration grade) and the concentration thereof was determined by potentiometric titration using a perchloric acid solution. The gluconate acid salt solution, whose concentration was thus determined, was diluted to predetermined concentrations with sterilized water. Each 1 ml of the solution of each concentration was placed in a Petri dish, 9 ml of Mueller-Hinton agar (supplied by Difco) was added thereto and well mixed. Thus sensitivity test media were prepared. The concentrations of the compound were 200 μg/ml and 2^n times wherein (n=-8 to 2). Separately, microorganism strains indicated in Table 1 were subcultured in propagation media (using Mueller-Hinton broth supplied by Difco) at 37° C. for 24 hours. The microorganism concentration was adjusted to 10^6 /ml. The thus obtained cultures were respectively inoculated on a series of sensitivity measuring culture media using an inoculation rod. […] The results are shown in Table 1 together with the result on chlorhexidine as a control.
(§3) Compounds of formula I, wherein the trifluoromethyl group is located at the p-position and n is 2, 3, 5, 8 and 11, were prepared starting from ethylene diamine dichloride, 1,3-propane diamine dichloride, 1,5-pentane diamine dichloride, 1,8-octane diamine dichloride or 1,11-undecane diamine dichloride, sodium dicyanamide and 4-trifluoromethyl aniline hydrochloride in accordance with the procedures as described above and minimum growth inhibition concentration (MIC) was determined in the same manner as above.
(§4) Disinfecting effect of the above-prepared compounds was tested by measurement of minimum growth inhibition concentration and by the test for immediate effect in the same manner as in Example 3.
(§5) Compounds of formula I, wherein the trifluoromethyl group is located at the m-position and n is 2, 3, 5 and 8, 11 were prepared starting from ethylene diamine dihydrochloride, 1,3-propane diamine dihydrochloride, 1,5-pentane diamine dihydrochloride, 1,8-octane diamine dihydrochloride or 1,11-undecane diamine dihydrochloride, sodium dicyanamide and 3-trifluoromethylaniline hydrochloride in accordance with the procedures of Example 4 and germicidal activity thereof were determined in the same manner.

Assay [2] deals with Serratia marcescens IID 602. The description is as above. The assay is classed as cell-based. The note with it: IID602, Mueller-Hinton agar, IID 602, read-out: MIC. The procedure: as §1, §2, §3, §4, §5
The next assay deals with Escherichia coli IID 951. The assay is described as above. The note with it: IID951, Mueller-Hinton agar, IID 951, read-out: MIC. The assay is classed as cell-based. As to the method:
as §1, §2, §3, §4, §5

The test system of assay [3] is Staphylococcus aureus FDA 209-P. Described as above. The assay is classed as cell-based. The note with it: FDA209, Mueller-Hinton agar. The procedure: as §1, §2, §3, §4, §5
Assay [4] has as its system Staphylococcus aureus (clin'ly col'ted MRSA). Briefly: minimum growth inhibition concentration, agar dilution (second MRSA line). The assay is classed as cell-based. The note with it: Mueller-Hinton agar, digluconate, clinically collected MRSA. The procedure: as §1, §2, §4
In a further assay the test system is dental plaque. To be noted: Warner et al, 1973; cited from earlier work.
The test system of assay [5] is Escherichia coli IID 861. Briefly: test for immediate effect (phenol coefficient method). The assay is classed as cell-based. To be noted: of three runs, conc. 0.001%, 20° C. The procedure:
Immediate effect of this compound was evaluated in accordance with the phenol coefficient method described in "Directions for Hygienic Tests" compiled by the Ministry of Health and Welfare of Japan. The method is as follows. (1) Culture medium Each 10 ml of the bouillon described below was taken into test tubes and they were sterilized with high pressure steam at 120° C. for 20 minutes. (2) Test method Diluted solutions of a series of concentrations of the sample compound were prepared for each of microorganisms listed in Table 2. Each 10 ml of the solutions was put into an appraisal test tube and the test tubes were placed in a thermostat bath kept at 20° C. Each microorganism was subcultured in the above described bouillon medium for testing disinfectants for three generations (37° C. for 48 hours). Each 1 ml of each culture was placed in each of the above-described series of appraisal test tubes and well mixed. After 2.5, 5, 10 and 15 minutes, 0.1 ml of the content of each appraisal test tube was taken and inoculated onto each portion of the bouillon medium for testing disinfectants. […] Each test was carried out three times. Immediate effect of disinfectants was compared by number of test runs in which microorganism growth was observed. […]

Assay [6] concerns Flavobacterium meningosepticum RIMD 0614002. Description: minimum growth inhibition concentration, agar dilution. The class given is cell-based. To be noted: Elizabethkingia meningoseptica, RIMD0614002; Mueller-Hinton agar; digluconate. The procedure:
as §1, §2, §4

Assay [7] has as its system Klebsiella pneumoniae IID 865. The assay is described as above. To be noted: IID865, Mueller-Hinton agar, digluconate, read-out: MIC. The assay is classed as cell-based. As to the method: as §1, §2, §4
For assay [8], the system named is Pseudomonas aerugimosa (clinically collected). Described as above. The assay is classed as cell-based. To be noted: Mueller-Hinton agar, digluconate. As to the method:
as §1, §2, §4

In assay [9] the test system is Achromobacter xylosoxidans RIMD 0101001. Described as above. The class given is cell-based. To be noted: RIMD0101001, Mueller-Hinton agar, digluconate. As to the method: as §1, §2, §4
Assay [10] has as its system Escherichia coli IID 861. Described as above. To be noted: IID861, Mueller-Hinton agar, digluconate, IID 861, read-out: MIC. The class given is cell-based. The procedure: as §1, §2, §4
The subject of assay [11] is Pseudomonas cepacia (collected Chiba Univ.). The description is as above. To be noted: Burkholderia cepacia, Mueller-Hinton agar, digluconate. The class given is cell-based. The procedure:
as §1, §2, §4

The subject of assay [12] is Alcaligenes faecalis IPO 13111. The assay is described as above. The assay is classed as cell-based. The note with it: IPO13111, Mueller-Hinton agar, digluconate. As to the method: as §1, §2, §4
Assay [13] relates to Escherichia coli NIHJ JC-2. Described as above. To be noted: NIHJJC2, Mueller-Hinton agar, digluconate, NIHJ JC-2, read-out: MIC. The assay is classed as cell-based. The procedure: as §1, §2, §4
Assay [14] deals with Staphylococcus epidermis IID 866. Described as above. The class given is cell-based. To be noted: IID866, Mueller-Hinton agar, digluconate, IID 866, read-out: MIC. The procedure:
as §1, §2, §4

A further assay deals with Proteus vulgaris IID 874. The description is as above. The assay is classed as cell-based. To be noted: IID874, Mueller-Hinton agar, digluconate. The procedure:
as §1, §2, §4

For assay [15], the system named is Staphylococcus aureus (clin'ly col'ted MRSA). Description: minimum growth inhibition concentration, agar dilution (first MRSA line). The assay is classed as cell-based. To be noted: Mueller-Hinton agar, digluconate, clinically collected MRSA, first line, read-out: MIC. The procedure:
as §1, §2, §4

The mark [16] stands for this setting: Pseudomonas aeruginosa, IID1042, Mueller-Hinton agar, read-out: MIC.

Converted amounts (≈) assume the structure as drawn. Where two headings read alike, the source gives them in different places.

On to `N=C(NCCCCCCCCNC(=N)NC(=N)Nc1ccc(C(F)(F)F)cc1)NC(=N)Nc1ccc(C(F)(F)F)cc1` [n = 8 (p-position)], for which the MIC in assay [1] (setting [16]) was 25 µg/mL (≈ 41.6 µM); in [2] it was 6.25 µg/mL (≈ 10.4 µM); in the assay on Escherichia coli IID 951 it was 1.56 µg/mL (≈ 2.6 µM); in assay [3], 1.56 µg/mL (≈ 2.6 µM).
As for `N=C(NCCCCCCCCNC(=N)NC(=N)Nc1cccc(C(F)(F)F)c1)NC(=N)Nc1cccc(C(F)(F)F)c1` [n = 8 (m-position)], the MIC is 25 µg/mL (≈ 41.6 µM) in assay [1] (setting [16]), 6.25 µg/mL (≈ 10.4 µM) in assay [2], 1.56 µg/mL (≈ 2.6 µM) in the assay with Escherichia coli IID 951 and 1.56 µg/mL (≈ 2.6 µM) in assay [3].
In the case of `N=C(NCCCCCNC(=N)NC(=N)Nc1ccc(C(F)(F)F)cc1)NC(=N)Nc1ccc(C(F)(F)F)cc1` [n = 5 (p-position)], the MIC in assay [1] (setting [16]) worked out at 12.5 µg/mL (≈ 22.4 µM); in assay [2] it was 6.25 µg/mL (≈ 11.2 µM); in the assay on Escherichia coli IID 951, 3.13 µg/mL (≈ 5.6 µM); in assay [3], 0.78 µg/mL (≈ 1.4 µM).
For the compound `N=C(NCCCCCCCCCCCNC(=N)NC(=N)Nc1ccc(C(F)(F)F)cc1)NC(=N)Nc1ccc(C(F)(F)F)cc1` [n = 11 (p-position)], the MIC in assay [1] (setting [16]) was 400 µg/mL (≈ 622 µM); in assay [2], 100 µg/mL (≈ 156 µM); in the assay on Escherichia coli IID 951, 50 µg/mL (≈ 77.8 µM); in [3], 12.5 µg/mL (≈ 19.4 µM).
`N=C(NCCCCCCNC(=N)NC(=N)Nc1cccc(C(F)(F)F)c1)NC(=N)Nc1cccc(C(F)(F)F)c1` [Ex. 5, 1,6-bis(N^5-m-trifluoromethylphenyl-N^1-biguanido)-hexane]: the MIC is 25.0 µg/mL (≈ 43.7 µM) in assay [1] (Mueller-Hinton agar, listed as n = 6 (m-position)); 25 µg/mL (≈ 43.7 µM) in [1] (setting [16]); 6.25 µg/mL (≈ 10.9 µM) in [2]; 1.56 µg/mL (≈ 2.72 µM) in the assay on Escherichia coli IID 951; 0.78 µg/mL (≈ 1.36 µM) in assay [3]; 1.56 µg/mL (≈ 2.72 µM) in assay [4]. The MIC in assay [6] turned out to be 200 µg/mL (≈ 349 µM); in assay [7], 1.56 µg/mL (≈ 2.72 µM); in [8], 25 µg/mL (≈ 43.7 µM); in assay [9], 25 µg/mL (≈ 43.7 µM); in the assay with Escherichia coli IID 861 [10] it was 1.56 µg/mL (≈ 2.72 µM); in [11], 50 µg/mL (≈ 87.3 µM). Further, the MIC in [12] was determined as 6.25 µg/mL (≈ 10.9 µM); in assay [13], 1.56 µg/mL (≈ 2.72 µM); in assay [14], 1.56 µg/mL (≈ 2.72 µM); with Proteus vulgaris IID 874 it was 12.5 µg/mL (≈ 21.8 µM); in [15] it was 3.13 µg/mL (≈ 5.47 µM). In addition, the antiplaque activity result in the assay on dental plaque was “superior antiplaque activity at lower concentrations”. The “number of test runs in which microorganism growth was observed” value in the assay with Escherichia coli IID 861 [5] (contact time 2.5 min) stood at 2; in the assay with Escherichia coli IID 861 [5] (contact time 5.0 min), 1; in the assay on Escherichia coli IID 861 [5] (contact time 10.0 min), 0; with Escherichia coli IID 861 [5] (contact time 15.0 min) it was 0.
For the compound `N=C(NCCCCCCNC(=N)NC(=N)Nc1ccccc1)NC(=N)Nc1ccccc1` [bis-phenyl-substituted derivative], in the assay on dental plaque, the antiplaque activity result was “no antiplaque activity”.
`N=C(NCCCCCCNC(=N)NC(=N)NC1CCCCC1)NC(=N)NC1CCCCC1` [bis-cyclohexyl-substituted]: the antiplaque activity result with dental plaque was “at the same level as chlorhexidin or better”.
For the compound `N=C(NCCCCCNC(=N)NC(=N)Nc1cccc(C(F)(F)F)c1)NC(=N)Nc1cccc(C(F)(F)F)c1` [n = 5 (m-position)], the MIC in assay [1] (setting [16]) was determined as 12.5 µg/mL (≈ 22.4 µM); in assay [2], 6.25 µg/mL (≈ 11.2 µM); in the assay with Escherichia coli IID 951, 3.13 µg/mL (≈ 5.6 µM); in assay [3], 0.78 µg/mL (≈ 1.4 µM).
The corresponding values for `N=C(NCCCNC(=N)NC(=N)Nc1ccc(C(F)(F)F)cc1)NC(=N)Nc1ccc(C(F)(F)F)cc1` [n = 3 (p-position)] are 50 µg/mL (≈ 94.3 µM), 6.25 µg/mL (≈ 11.8 µM), 1.56 µg/mL (≈ 2.94 µM) and 0.78 µg/mL (≈ 1.47 µM).
For `N=C(NCCCCCCNC(=N)NC(=N)NC12CC3CC(CC(C3)C1)C2)NC(=N)NC12CC3CC(CC(C3)C1)C2` [bis-1-adamanthyl-substituted derivatives], the antiplaque activity result with dental plaque is “at the same level as chlorhexidin or better”.
In the case of `N=C(NCCNC(=N)NC(=N)Nc1ccc(C(F)(F)F)cc1)NC(=N)Nc1ccc(C(F)(F)F)cc1` [n = 2 (p-position)], the MIC in assay [1] (setting [16]) was found to be 200 µg/mL (≈ 387 µM); in assay [2], 50 µg/mL (≈ 96.8 µM); in the assay with Escherichia coli IID 951, 12.5 µg/mL (≈ 24.2 µM); in [3], 25 µg/mL (≈ 48.4 µM).
The corresponding values for `N=C(NCCCNC(=N)NC(=N)Nc1cccc(C(F)(F)F)c1)NC(=N)Nc1cccc(C(F)(F)F)c1` [n = 3 (m-position)] are 50 µg/mL (≈ 94.3 µM), 12.5 µg/mL (≈ 23.6 µM), 3.13 µg/mL (≈ 5.9 µM) and 3.13 µg/mL (≈ 5.9 µM).
The corresponding values for `N=C(NCCCCCCCCCCCNC(=N)NC(=N)Nc1cccc(C(F)(F)F)c1)NC(=N)Nc1cccc(C(F)(F)F)c1` [n = 11 (m-position)] are 400 µg/mL (≈ 622 µM), 100 µg/mL (≈ 156 µM), 25 µg/mL (≈ 38.9 µM) and 12.5 µg/mL (≈ 19.4 µM).
The like results for `N=C(NCCNC(=N)NC(=N)Nc1cccc(C(F)(F)F)c1)NC(=N)Nc1cccc(C(F)(F)F)c1` [n = 2 (m-position)] were, in that order, 200 µg/mL (≈ 387 µM), 50 µg/mL (≈ 96.8 µM), 12.5 µg/mL (≈ 24.2 µM) and 12.5 µg/mL (≈ 24.2 µM).
